# Assay results reported in patent US20040229207A1 (priority 1999, published 2004).
# Legend:
# [1] = system: LAB-1; test: Antibiotic sensitivity testing of LAB-1; format: cell-based
# Description: A variety of biochemical tests were performed in order to identify the species and the genus of organism. The tests included: assessment of growth conditions, culture appearance, cell appearance and staining characteristics, optimal temperature and pH growth range, oxygen requirements, antibiotic sensitivity testing, tests for catalase and oxidase (using TAXOS N™ disks), amino acid utilization as carbon source, nitrogen fixation, motility test, and a variety of commercially available tests from MICRO-ID™, OXYFERM™, ENTEROTUBE™ and BIOLOG GN MICROPLATE™.
# [2] = system: LAB-1 strain; test: Inhibition of LAB-1 growth, cell attachment and biofilm production in growth media; format: cell-based; conditions: 0.1-1.0% (w/v) in liquid or solid growth media
# Description: It would be apparent to one of ordinary skill in the art to apply the above methods to inhibit the production of mucoid compounds and biofilm in any mucoid organism.
Molecule,Antibiotic Susceptibility [1],"growth, development, cell attachment and biofilm production of LAB-1 [2]"
NCC[C@H](O)C(=O)N[C@@H]1C[C@H](N)[C@@H](O[C@H]2O[C@H](CN)[C@@H](O)[C@H](O)[C@H]2O)[C@H](O)[C@H]1O[C@H]1O[C@H](CO)[C@@H](O)[C@H](N)[C@H]1O [Amikacin],sensitive,
CC1(C)S[C@@H]2[C@H](NC(=O)[C@H](N)c3ccccc3)C(=O)N2[C@H]1C(=O)O [Ampicillin],resistant,
CC[C@H]1OC(=O)[C@H](C)[C@@H](O[C@H]2C[C@@](C)(OC)[C@@H](O)[C@H](C)O2)[C@H](C)[C@@H](O[C@@H]2O[C@H](C)C[C@H](N(C)C)[C@H]2O)[C@](C)(O)C[C@@H](C)C(=O)[C@H](C)[C@@H](O)[C@]1(C)O [Erythromycin],resistant,
CO[C@@H]1[C@@H](OC(N)=O)[C@@H](O)[C@H](Oc2ccc3c(O)c(NC(=O)c4ccc(O)c(CC=C(C)C)c4)c(=O)oc3c2C)OC1(C)C [Novobiocin],sensitive,
[H]/N=C(/N)N[C@H]1[C@H](O)[C@@H](O)[C@H](O[C@@H]2O[C@@H](C)[C@](O)(C=O)[C@H]2O[C@@H]2O[C@@H](CO)[C@H](O)[C@@H](O)[C@@H]2NC)[C@@H](N/C(N)=N\[H])[C@@H]1O [Streptomycin],resistant,
"CC(C)Cc1ccc(C(C)C(=O)O)cc1 (stereo not shown) [ibuprofen, 2-(4-isobutylphenyl)-propionic acid]",,differentially inhibits
CCC(=O)O [propionic acid],,differentially inhibits
Neomycin,sensitive,
Penicillin,resistant,
Polymyxin B,sensitive,
